Test results: the NIST ThermoML archive (doi:10.1016/j.jct.2015.04.029)

Legend:
[1] = wn = mass fraction of the nth substance listed; conditions: for surface tension liquid-gas: Maximal bubble pressure; for mass density: 100 kPa, Liquid, Vibrating tube method
[2] = refractive index (Na D-line) (dimensionless); wn = mass fraction of the nth substance listed; conditions: 100 kPa, Liquid, Standard Abbe refractometry

CCC[n+]1ccn(C)c1.N[C@@H](CO)C(=O)[O-] [1-methyl-3-propylimidazolium L-serinate] + O
Conditions	mass density [kg/m3]	refractive index	surface tension liquid-gas [mN/m]
[1], 298.15 K, w2 = 0.00636	1181.69	–	–
[1], 298.15 K, w2 = 0.00641	–	–	50.2
[1], 298.15 K, w2 = 0.00785	1181.73	–	–
[1], 298.15 K, w2 = 0.00791	–	–	50.8
[1], 298.15 K, w2 = 0.00939	1181.78	–	–
[1], 298.15 K, w2 = 0.00942	–	–	51.7
[1], 298.15 K, w2 = 0.0109	1181.82	–	–
[1], 298.15 K, w2 = 0.01091	–	–	52.5
[1], 298.15 K, w2 = 0.0124	1181.86	–	–
[1], 298.15 K, w2 = 0.01241	–	–	53.2
[1], 303.15 K, w2 = 0.00636	1178.52	–	–
[1], 303.15 K, w2 = 0.00641	–	–	49.9
[1], 303.15 K, w2 = 0.00785	1178.56	–	–
[1], 303.15 K, w2 = 0.00791	–	–	50.5
[1], 303.15 K, w2 = 0.00939	1178.61	–	–
[1], 303.15 K, w2 = 0.00942	–	–	51.4
[1], 303.15 K, w2 = 0.0109	1178.65	–	–
[1], 303.15 K, w2 = 0.01091	–	–	52.1
[1], 303.15 K, w2 = 0.0124	1178.69	–	–
[1], 303.15 K, w2 = 0.01241	–	–	52.9
[1], 308.15 K, w2 = 0.00636	1175.36	–	–
[1], 308.15 K, w2 = 0.00641	–	–	49.6
[1], 308.15 K, w2 = 0.00785	1175.39	–	–
[1], 308.15 K, w2 = 0.00791	–	–	50.2
[1], 308.15 K, w2 = 0.00939	1175.43	–	–
[1], 308.15 K, w2 = 0.00942	–	–	50.9
[1], 308.15 K, w2 = 0.0109	1175.47	–	–
[1], 308.15 K, w2 = 0.01091	–	–	51.8
[1], 308.15 K, w2 = 0.0124	1175.52	–	–
[1], 308.15 K, w2 = 0.01241	–	–	52.5
[1], 313.15 K, w2 = 0.00636	1172.21	–	–
[1], 313.15 K, w2 = 0.00641	–	–	49.2
[1], 313.15 K, w2 = 0.00785	1172.24	–	–
[1], 313.15 K, w2 = 0.00791	–	–	49.9
[1], 313.15 K, w2 = 0.00939	1172.29	–	–
[1], 313.15 K, w2 = 0.00942	–	–	50.5
[1], 313.15 K, w2 = 0.0109	1172.33	–	–
[1], 313.15 K, w2 = 0.01091	–	–	51.4
[1], 313.15 K, w2 = 0.0124	1172.37	–	–
[1], 313.15 K, w2 = 0.01241	–	–	52
[1], 318.15 K, w2 = 0.00636	1169.06	–	–
[1], 318.15 K, w2 = 0.00641	–	–	48.8
[1], 318.15 K, w2 = 0.00785	1169.09	–	–
[1], 318.15 K, w2 = 0.00791	–	–	49.5
[1], 318.15 K, w2 = 0.00939	1169.13	–	–
[1], 318.15 K, w2 = 0.00942	–	–	50.1
[1], 318.15 K, w2 = 0.0109	1169.18	–	–
[1], 318.15 K, w2 = 0.01091	–	–	50.9
[1], 318.15 K, w2 = 0.0124	1169.22	–	–
[1], 318.15 K, w2 = 0.01241	–	–	51.6
[1], 323.15 K, w2 = 0.00636	1165.86	–	–
[1], 323.15 K, w2 = 0.00641	–	–	48.5
[1], 323.15 K, w2 = 0.00785	1165.89	–	–
[1], 323.15 K, w2 = 0.00791	–	–	49.2
[1], 323.15 K, w2 = 0.00939	1165.94	–	–
[1], 323.15 K, w2 = 0.00942	–	–	49.8
[1], 323.15 K, w2 = 0.0109	1165.98	–	–
[1], 323.15 K, w2 = 0.01091	–	–	50.6
[1], 323.15 K, w2 = 0.0124	1166.03	–	–
[1], 323.15 K, w2 = 0.01241	–	–	51.2
[1], 328.15 K, w2 = 0.00636	1162.76	–	–
[1], 328.15 K, w2 = 0.00641	–	–	48.2
[1], 328.15 K, w2 = 0.00785	1162.79	–	–
[1], 328.15 K, w2 = 0.00791	–	–	48.8
[1], 328.15 K, w2 = 0.00939	1162.83	–	–
[1], 328.15 K, w2 = 0.00942	–	–	49.5
[1], 328.15 K, w2 = 0.0109	1162.87	–	–
[1], 328.15 K, w2 = 0.01091	–	–	50.2
[1], 328.15 K, w2 = 0.0124	1162.91	–	–
[1], 328.15 K, w2 = 0.01241	–	–	50.8
[1], 333.15 K, w2 = 0.00636	1159.67	–	–
[1], 333.15 K, w2 = 0.00641	–	–	47.8
[1], 333.15 K, w2 = 0.00785	1159.7	–	–
[1], 333.15 K, w2 = 0.00791	–	–	48.5
[1], 333.15 K, w2 = 0.00939	1159.74	–	–
[1], 333.15 K, w2 = 0.00942	–	–	49.1
[1], 333.15 K, w2 = 0.0109	1159.79	–	–
[1], 333.15 K, w2 = 0.01091	–	–	49.7
[1], 333.15 K, w2 = 0.0124	1159.83	–	–
[1], 333.15 K, w2 = 0.01241	–	–	50.4
[1], 338.15 K, w2 = 0.00636	1156.58	–	–
[1], 338.15 K, w2 = 0.00641	–	–	47.5
[1], 338.15 K, w2 = 0.00785	1156.62	–	–
[1], 338.15 K, w2 = 0.00791	–	–	48.2
[1], 338.15 K, w2 = 0.00939	1156.65	–	–
[1], 338.15 K, w2 = 0.00942	–	–	48.7
[1], 338.15 K, w2 = 0.0109	1156.69	–	–
[1], 338.15 K, w2 = 0.01091	–	–	49.3
[1], 338.15 K, w2 = 0.0124	1156.73	–	–
[1], 338.15 K, w2 = 0.01241	–	–	50
[2], 298.15 K, w2 = 0.00614	–	1.5158	–
[2], 298.15 K, w2 = 0.00766	–	1.5154	–
[2], 298.15 K, w2 = 0.00917	–	1.5149	–
[2], 298.15 K, w2 = 0.01069	–	1.5144	–
[2], 298.15 K, w2 = 0.01217	–	1.514	–
[2], 303.15 K, w2 = 0.00614	–	1.5145	–
[2], 303.15 K, w2 = 0.00766	–	1.514	–
[2], 303.15 K, w2 = 0.00917	–	1.5135	–
[2], 303.15 K, w2 = 0.01069	–	1.5131	–
[2], 303.15 K, w2 = 0.01217	–	1.5125	–
[2], 308.15 K, w2 = 0.00614	–	1.5131	–
[2], 308.15 K, w2 = 0.00766	–	1.5126	–
[2], 308.15 K, w2 = 0.00917	–	1.5119	–
[2], 308.15 K, w2 = 0.01069	–	1.5115	–
[2], 308.15 K, w2 = 0.01217	–	1.5109	–
[2], 313.15 K, w2 = 0.00614	–	1.5118	–
[2], 313.15 K, w2 = 0.00766	–	1.5113	–
[2], 313.15 K, w2 = 0.00917	–	1.5106	–
[2], 313.15 K, w2 = 0.01069	–	1.5102	–
[2], 313.15 K, w2 = 0.01217	–	1.5095	–
[2], 318.15 K, w2 = 0.00614	–	1.5106	–
[2], 318.15 K, w2 = 0.00766	–	1.5099	–
[2], 318.15 K, w2 = 0.00917	–	1.5092	–
[2], 318.15 K, w2 = 0.01069	–	1.5087	–
[2], 318.15 K, w2 = 0.01217	–	1.5081	–
[2], 323.15 K, w2 = 0.00614	–	1.5094	–
[2], 323.15 K, w2 = 0.00766	–	1.5086	–
[2], 323.15 K, w2 = 0.00917	–	1.5078	–
[2], 323.15 K, w2 = 0.01069	–	1.5072	–
[2], 323.15 K, w2 = 0.01217	–	1.5065	–
[2], 328.15 K, w2 = 0.00614	–	1.5081	–
[2], 328.15 K, w2 = 0.00766	–	1.5072	–
[2], 328.15 K, w2 = 0.00917	–	1.5063	–
[2], 328.15 K, w2 = 0.01069	–	1.5056	–
[2], 328.15 K, w2 = 0.01217	–	1.505	–
[2], 333.15 K, w2 = 0.00614	–	1.5068	–
[2], 333.15 K, w2 = 0.00766	–	1.5058	–
[2], 333.15 K, w2 = 0.00917	–	1.5049	–
[2], 333.15 K, w2 = 0.01069	–	1.5042	–
[2], 333.15 K, w2 = 0.01217	–	1.5035	–
[2], 338.15 K, w2 = 0.00614	–	1.5054	–
[2], 338.15 K, w2 = 0.00766	–	1.5044	–
[2], 338.15 K, w2 = 0.00917	–	1.5036	–
[2], 338.15 K, w2 = 0.01069	–	1.5028	–
[2], 338.15 K, w2 = 0.01217	–	1.5021	–
